Experimental findings from patent US20180015098A1 (LAM Therapeutics, Inc., priority 2015, published 2018) are described below.

In this experiment the test system is panel of 456 kinases. Description: Screen of apilimod against a comprehensive panel of 456 kinases (PIKfyve not included). It counts as binding. The conditions noted are these: screening concentration 1 μM. An excerpt:
Next, apilimod was screened against a comprehensive panel of kinases (PIKfyve not included).

In the case of `Cc1cccc(/C=N/Nc2cc(N3CCOCC3)nc(OCCc3ccccn3)n2)c1` [apilimod], the “binding to kinases of the panel” value is “did not bind to any of the 456 kinases tested”.
